The source of these data is patent publication US20190128870A1, “Diagnostic Methods For Patient Specific Therapeutic Decision Making In Cancer Care” (Humeltis, priority 2016, published 2019).

Test [1] deals with Glioblastoma multiforme 3D aggregates. The experiment in a line: CellTiter-Glo 3D Cell Viability Assay, glioblastoma drug sensitivity test. Type of test: cell-based, human. As to conditions: BCNU 0.3, 0.03, 0.003 mg/ml, FIGS. 3 & 4.
Method: Toxicology assay: CellTiter-Glo® 3D Cell Viability Assay (Promega). The CellTiter-Glo® 3D Cell Viability Assay is a homogeneous, luminescent method to determine the number of viable cells in 3D cell culture based on quantitation of the ATP present, which is a marker for the presence of metabolically active cells.
Aggregates were prepared in 96-well plates and cultures were incubated with the following agents: cisplatin, erlotinib, vinorelbine, and pemetrexed. […] Following 24, 48 h or 72 h incubation, cells were labelled using Annexin V-PI and analyzed by flow cytometry or analysed by Promega CellTiter-Glo® 3D Cell Viability Assay Kit (Luminescent) (ATP detection kit)(FIGS. 3 & 4).
The next test deals with glioblastoma tumour. Put plainly: Treatment of the glioblastoma patient. Format: in vivo, human. The procedure: The patient was treated with BCNU and the tumour was regressing within 2 weeks after the first administration of the drug.
The test system of test [2] is Glioblastoma multiforme 3D aggregates (Glioblastoma 1). The experiment in a line: Annexin V-PI flow cytometry of drug-treated Glioblastoma 1 3D aggregates. Type of test: cell-based, human. The procedure: Two, freshly resected, native samples reached the laboratory directly from the pathologist within 2 hours of surgery. The two samples were treated separately and were labelled as “Glioblastoma 1” and “Glioblastoma 2”. […] The samples were processed according to protocol and drug sensitivity tests were performed using the viable, Sample 1. Samples for DNA and RNA isolation were also stored at −80° C., leaving the opportunity open for additional sequencing or comparative gene expression studies. Traditional out-growth cultures were also prepared from Glioblastoma sample 1 showing the strong viability and proliferative ability of the cells (FIG. 1.). Annexin: Annexin V is used as a non-quantitative probe to detect cells that express phosphatidylserine (PS) on their cell surface, an event found in apoptosis as well as other forms of cell death. The assay combines annexin V staining of PS and PE membrane events with the staining of DNA in the cell nucleus with propidium iodide (PI) or 7-Aminoactinomycin D (AAD-7), distinguishing viable cells from apoptotic cells and necrotic cells. Detection was performed by flow cytometry or a fluorescence microscope. […] Erbitux (Cetuximab): 4.8 mg/ml; […] Erlotinib similarly to Cetuximab is an EGFR inhibitor (the two drugs are frequently used clinically together).
(In general: In flow cytometry, cells or beads pass a laser one at a time.)

As to `O=NN(CCCl)C(=O)NCCCl` [BCNU, Carmustine], the “sensitivity of the glioblastoma cells” value in test [1] is recorded as “clearly confirmed sensitivity”. Further, in the test on glioblastoma tumour, the “time to tumour regressing after the first administration of the drug” value is recorded as at most 2 weeks.

On to `C#Cc1cccc(Nc2ncnc3cc(OCCOC)c(OCCOC)cc23)c1` [Erlotinib], for which, in test [2] (1 μM), the “Annexin Pl++ Late apoptosis” value is 0.32% and the “Pl+ ratio within Annexin+ Non-viable” value was found to be 0.62%.

Take `CCC1=C[C@@H]2CN(C1)Cc1c([nH]c3ccccc13)[C@@](C(=O)OC)(c1cc3c(cc1OC)N(C)[C@H]1[C@@](O)(C(=O)OC)[C@H](OC(C)=O)[C@]4(CC)C=CCN5CC[C@]31[C@@H]54)C2` [Vinorelbine]: in test [2] (20 nM), the “Annexin Pl++ Late apoptosis” value is given as 0.49% and the “Pl+ ratio within Annexin+ Non-viable” value amounted to 0.93%. In test [2] (50 nM), the “Annexin Pl++ Late apoptosis” value is reported as 0.05% and the “Pl+ ratio within Annexin+ Non-viable” value came out at 0.09%.

As to `Nc1nc2[nH]cc(CCc3ccc(C(=O)N[C@@H](CCC(=O)O)C(=O)O)cc3)c2c(=O)[nH]1` [Pemetrexed], in test [2] (1 μM), the “Annexin Pl++ Late apoptosis” value is given as 0.19% and the “Pl+ ratio within Annexin+ Non-viable” value was 0.37%.

Take `N.N.[Cl][Pt][Cl]` [Cisplatin]: in test [2] (9 μg/m1), the “Annexin Pl++ Late apoptosis” value came out at 0.19% and the “Pl+ ratio within Annexin+ Non-viable” value was 0.44%.
